Assay results taken from patent US20040249122A1, “Cationic, amphipathic beta-sheet peptides and uses thereof” (priority 2003, published 2004).
≈ marks a conversion by molar mass, not a printed value. Entries after “also recorded” stand apart in the source; their conditions may differ. Where a SMILES comes first, the peptide text is derived from it. The star is where a group is joined. Octanoyl = CCCCCCCC(=O)*

Tests used:
[1] = test system: Escherichia coli (ATCC 25922); type: cell-based; conditions: ATCC 25922
Protocol: (§1) Antimicrobial and Hemolytic Assays. Antimicrobial susceptibility testing against Staphylococcus aureus (ATCC 29213), Escherichia coli (ATCC 25922), and Pseudomonas aeruginosa (ATCC 27853) was performed using a modification of the National Committee for Clinical Laboratory Standards microdilution broth assay (22). Mueller-Hinton broth (BBL) was used for diluting the peptide stock solution and for diluting the bacterial inoculum. The inoculum was prepared from mid-logarithmic phase cultures. […] The final concentration of peptide solution ranged-from 0.25 to 256 μg/mL in two-fold dilutions. The final concentration of bacteria in the wells was 5×10^5 CFU/mL. Peptides were tested in duplicate. In addition to the test peptide, three standard peptides and a non-treated growth control were included to validate the assay. The microtiter plates were incubated overnight at 37° C. and the absorbance was measured at 600 nm. […] After incubation at 37° C. for 30 min, the suspension was centrifuged at 10,000×g for 10 min and the absorbance at 400 nm was measured.

[2] = test system: Pseudomonas aeruginosa (ATCC 27853); type: cell-based; conditions: ATCC 27853
Protocol: as §1

[3] = test system: Staphylococcus aureus (ATCC 29213); type: cell-based; conditions: ATCC 29213
Protocol: as §1

[4] = Peptide-induced leakage from calcein-loaded LUV
Protocol: Peptide-Induced Leakage from Calcein-Loaded LUV. The ability of the peptides to release calcein (MW 623) from LUV of varying lipid composition was compared. LUV were prepared as above, except that-the buffer consisted of 50 mM HEPES, 100 mM NaCl, 0.3 mM EDTA, 80 mM calcein, pH 7.4. Calcein-loaded vesicles were separated from free calcein by size-exclusion chromatography using a Sephadex G-50 column and calcein-free buffer. Calcein leakage was monitored using a Perkin-Elmer LS-500 luminescence spectrometer by measuring the time-dependent increase in fluorescence of calcein (excitation=490 nm, emission=520 nm). LUV containing 8 nmoles of lipid were added to 1.5 mL of buffer in a stirred cuvet at 25° C. An aliquot of peptide was added to achieve the desired lipid-to-peptide ratio (256 to 8). Complete leakage was determined by the addition of 20 μL of 10% Triton X-100. Each value represents at least nine different measurements using at least three different LUV preparations.

[5] = test system: E. coli, S. aureus, and P. aeruginosa; type: cell-based
Protocol: Antimicrobial and Hemolytic Assays. Antimicrobial susceptibility testing against Staphylococcus aureus (ATCC 29213), Escherichia coli (ATCC 25922), and Pseudomonas aeruginosa (ATCC 27853) was performed using a modification of the National Committee for Clinical Laboratory Standards microdilution broth assay (22). Mueller-Hinton broth (BBL) was used for diluting the peptide stock solution and for diluting the bacterial inoculum. The inoculum was prepared from mid-logarithmic phase cultures. Microtiter plate wells received aliquots-of 100 μL each of the inoculum and peptide dilution. The final concentration of peptide solution ranged-from 0.25 to 256 μg/mL in two-fold dilutions. The final concentration of bacteria in the wells was 5×10^5 CFU/mL. Peptides were tested in duplicate. In addition to the test peptide, three standard peptides and a non-treated growth control were included to validate the assay. The microtiter plates were incubated overnight at 37° C. and the absorbance was measured at 600 nm. […] Hemolysis at peptide concentrations of 500 μg/mL was determined using a 5% suspension of freshly drawn human erythrocytes, which had been washed twice in phosphate buffered saline. After incubation at 37° C. for 30 min, the suspension was centrifuged at 10,000×g for 10 min and the absorbance at 400 nm was measured. Complete hemolysis was determined by adding 0.2% Triton X-100 in place of the peptide.

SMILES | MIC E. coli [1] [µg/mL] | MIC Pseud. aerug [2] [µg/mL] | MIC Staph. aureus [3] [µg/mL] | calcein leakage from LUV (in words) ([4]; LUVs from E. coli lipids) | calcein leakage from LUV (in words) ([4]; POPC (PC) LUV) | MIC values [5] [µg/mL] | antimicrobial activity (in words) [5]
CC(C)C[C@H](NC(=O)[C@H](CCCCN)NC(=O)[C@H](CC(C)C)NC(=O)[C@H](CCCCN)NC(=O)[C@H](CC(C)C)NC(=O)[C@H](CCCCN)NC(=O)[C@H](CC(C)C)NC(=O)[C@H](CCCCN)NC(=O)[C@H](CC(C)C)NC(=O)[C@H](CCCCN)NC(=O)[C@H](Cc1c[nH]c2ccccc12)NC(=O)[C@H](CCCCN)NC(=O)[C@H](CC(C)C)NC(=O)[C@H](CCCCN)NC(=O)[C@H](CC(C)C)NC(=O)[C@H](CCCCN)NC(=O)[C@H](CC(C)C)NC(=O)[C@@H](N)CCCCN)C(N)=O [KL-18, K L K L K L K W K L K L K L K L K L-NH2] (H-KLKLKLKWKLKLKLKLKL-NH2; N-terminus assumed) | 64 (≈ 28.3 µM) | 32 (≈ 14.1 µM) | 16 (≈ 7.07 µM) | highly effective | most potent; also recorded: quite lytic | 4 to 16 | 
CC(C)C[C@H](NC(=O)[C@H](CCCCN)NC(=O)[C@H](CC(C)C)NC(=O)[C@H](CCCCN)NC(=O)[C@H](CC(C)C)NC(=O)[C@H](CCCCN)NC(=O)[C@H](Cc1c[nH]c2ccccc12)NC(=O)[C@H](CCCCN)NC(=O)[C@H](CC(C)C)NC(=O)[C@H](CCCCN)NC(=O)[C@H](CC(C)C)NC(=O)[C@H](CCCCN)NC(=O)[C@H](CC(C)C)NC(=O)[C@@H](N)CCCCN)C(N)=O [KL-14, K L K L K L K W K L K L K L-NH2] (H-KLKLKLKWKLKLKL-NH2; N-terminus assumed) | 32 (≈ 18 µM) | 16 (≈ 8.99 µM) | 16 (≈ 8.99 µM) | highly effective | quite lytic | 4 to 16 | 
CC(C)C[C@H](NC(=O)CNC(=O)[C@H](C)NC(=O)[C@H](CCCCN)NC(=O)[C@H](CC(C)C)NC(=O)[C@H](CCCCN)NC(=O)[C@H](C)NC(=O)[C@H](CC(C)C)NC(=O)CNC(=O)[C@H](C)NC(=O)[C@H](CCCCN)NC(=O)[C@H](Cc1c[nH]c2ccccc12)NC(=O)[C@H](CCCCN)NC(=O)[C@H](C)NC(=O)[C@H](CC(C)C)NC(=O)CNC(=O)[C@H](C)NC(=O)[C@H](CCCCN)NC(=O)[C@H](CC(C)C)NC(=O)[C@@H](N)CCCCN)C(=O)N[C@@H](C)C(N)=O [1,3-Hept, KLKAGLAKWKAGLAKLKAGLA-NH2] (H-KLKAGLAKWKAGLAKLKAGLA-NH2; N-terminus assumed) | 32 (≈ 15 µM) | >256 | 256 (≈ 120 µM) |  |  |  | slightly active
CC(C)C[C@H](NC(=O)CNC(=O)[C@H](CCCCN)NC(=O)[C@H](C)NC(=O)[C@H](CC(C)C)NC(=O)[C@H](CCCCN)NC(=O)[C@H](C)NC(=O)[C@H](CC(C)C)NC(=O)CNC(=O)[C@H](CCCCN)NC(=O)[C@H](C)NC(=O)[C@H](Cc1c[nH]c2ccccc12)NC(=O)[C@H](CCCCN)NC(=O)[C@H](C)NC(=O)[C@H](CC(C)C)NC(=O)CNC(=O)[C@H](CCCCN)NC(=O)[C@H](C)NC(=O)[C@H](CC(C)C)NC(=O)[C@@H](N)CCCCN)C(=O)N[C@@H](C)C(N)=O [1,4-Hept, KLAKGLAKWAKGLAKLAKGLA-NH2] (H-KLAKGLAKWAKGLAKLAKGLA-NH2; N-terminus assumed) | 8 (≈ 3.75 µM) | 32 (≈ 15 µM) | 8 to 16 |  |  |  | relatively low MIC values
CC(C)C[C@H](NC(=O)CNC(=O)[C@H](C)NC(=O)[C@H](CC(C)C)NC(=O)[C@H](CCCCN)NC(=O)[C@H](CCCCN)NC(=O)[C@H](C)NC(=O)[C@H](CC(C)C)NC(=O)CNC(=O)[C@H](C)NC(=O)[C@H](Cc1c[nH]c2ccccc12)NC(=O)[C@H](CCCCN)NC(=O)[C@H](CCCCN)NC(=O)[C@H](C)NC(=O)[C@H](CC(C)C)NC(=O)CNC(=O)[C@H](C)NC(=O)[C@H](CC(C)C)NC(=O)[C@H](CCCCN)NC(=O)[C@@H](N)CCCCN)C(=O)N[C@@H](C)C(N)=O [1,2-Hept, KKLAGLAKKWAGLAKKLAGLA-NH2] (H-KKLAGLAKKWAGLAKKLAGLA-NH2; N-terminus assumed) | 8 (≈ 3.75 µM) | 16 (≈ 7.49 µM) | 16 (≈ 7.49 µM) |  |  |  | relatively low MIC values
CCCCCCCC(=O)N[C@@H](CCCCN)C(=O)N[C@@H](Cc1c[nH]c2ccccc12)C(=O)NCC(=O)N[C@@H](C)C(=O)N[C@@H](CCCCN)C(=O)N[C@H](C(N)=O)[C@@H](C)CC [Oct-KIGAKI-6, Oct- K W G A K I-NH2] (Octanoyl-KWGAKI-NH2) | >256 | >256 | >256 |  |  |  | no activity
CC(C)C[C@H](NC(=O)CNC(=O)[C@H](C)NC(=O)[C@H](CC(C)C)NC(=O)[C@H](CCCCN)NC(=O)[C@H](CCCCN)NC(=O)[C@H](C)NC(=O)[C@H](CC(C)C)NC(=O)CNC(=O)[C@H](C)NC(=O)[C@H](Cc1c[nH]c2ccccc12)NC(=O)[C@H](CCCCN)NC(=O)[C@H](CCCCN)NC(=O)[C@H](C)NC(=O)[C@H](CC(C)C)NC(=O)CNC(=O)[C@H](C)NC(=O)[C@H](CC(C)C)NC(=O)[C@@H](N)CCCCN)C(=O)N[C@@H](C)C(=O)N[C@@H](CCCCN)C(N)=O [1,7-Hept, KLAGLAKKWAGLAKKLAGLAK-NH2] (H-KLAGLAKKWAGLAKKLAGLAK-NH2; N-terminus assumed) | 8 (≈ 3.75 µM) | 16 (≈ 7.49 µM) | 16 (≈ 7.49 µM) |  |  |  | relatively low MIC values
CCCCCCCC(=O)N[C@@H](CCCCN)C(=O)N[C@@H](CC(C)C)C(=O)N[C@@H](CCCCN)C(=O)N[C@@H](Cc1c[nH]c2ccccc12)C(=O)N[C@@H](CCCCN)C(=O)N[C@@H](CC(C)C)C(=O)N[C@@H](CCCCN)C(=O)N[C@@H](CC(C)C)C(=O)N[C@@H](CCCCN)C(=O)N[C@@H](CC(C)C)C(=O)N[C@@H](CCCCN)C(N)=O [Oct-Beta-11, Oct- K L K W K L K L K L K-NH2] (Octanoyl-KLKWKLKLKLK-NH2) | 16 (≈ 10.3 µM) | 8 (≈ 5.16 µM) | 4 (≈ 2.58 µM) |  |  |  | reasonable antimicrobial activity
